Here are results for ten compounds from US10968178B2, “IP6K inhibitors” (TAKEDA PHARMACEUTICAL COMPANY LIMITED, priority 2017, dated 2021).

What all share (assay type): biochemical
Assay [1] addresses T1, human IP6K1 (Homo sapiens, UniProt Q92551).
T1 construct: human IP6K1 (1-441) gene; GST; made in house; host or cells: Sf-9 insect cells
In words: IP6K enzyme inhibitory assay (ADP-Glo Kinase Assay), human IP6K1. The conditions noted are these: compound concentration 0.1 μM; read-out: ADP-Glo method inhibitory rate (%) human IP6K1. The method, then: (§1) IP6K Enzyme Inhibitory Assay
(§2) Human IP6K3 enzyme was prepared by transducing human IP6K3 (1-410) gene into BL21 (DE3) Escherichia coli and purifying by Ni-NTA (nickel-nitrilotriacetic acid) affinity column. […] The enzymes were used after preservation at −70° C. The IP6K enzyme inhibitory activity of the test compound was measured by the following experiment method and using ADP-Glo™ Kinase Assay (manufactured by Promega). A test compound diluted with an assay buffer (20 mM HEPES (pH 7.5), 6 mM MgCl2, 0.01% Tween-20, 1 mM DTT) was first added by 2 μL to a 384 well plate. […] The IP6K enzyme solution diluted with the assay buffer was added by 2 μL to start the enzyme reaction. Incubation was performed at room temperature for a given time (120 min for rat IP6K3 alone, 60 min for others). After incubation at room temperature, ADP-Glo solution prepared according to the protocol of Promega was added by 3 μL to the 384 well plate and reacted at room temperature for 30 min. Thereafter, Kinase-Detection solution was added by 6 μL to the 384 well plate and reacted at room temperature for 60 min. After the reaction, the luminescence intensity was measured by a plate reader Envision (manufactured by PerkinElmer).

Assay [2] has as its target T2, human IP6K3 (Homo sapiens, UniProt Q96PC2).
T2 construct: human IP6K3 (1-410) gene; made in house; host or cells: BL21 (DE3) Escherichia coli
T2 sequence (Q96PC2 1-410): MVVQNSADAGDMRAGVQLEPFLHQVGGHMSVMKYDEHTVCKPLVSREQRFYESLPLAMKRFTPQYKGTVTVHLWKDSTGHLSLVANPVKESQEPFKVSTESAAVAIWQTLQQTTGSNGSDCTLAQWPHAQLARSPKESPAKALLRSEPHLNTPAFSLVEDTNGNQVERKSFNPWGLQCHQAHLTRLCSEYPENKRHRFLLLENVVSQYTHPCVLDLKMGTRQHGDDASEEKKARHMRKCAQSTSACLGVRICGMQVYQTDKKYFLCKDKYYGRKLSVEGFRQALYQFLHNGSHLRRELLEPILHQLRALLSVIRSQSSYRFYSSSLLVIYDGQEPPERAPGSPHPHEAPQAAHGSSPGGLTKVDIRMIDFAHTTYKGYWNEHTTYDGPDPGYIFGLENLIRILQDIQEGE
Nature of the assay: IP6K enzyme inhibitory assay (ADP-Glo Kinase Assay), human IP6K3. Particulars: compound concentration 0.1 μM; read-out: ADP-Glo method inhibitory rate (%) human IP6K3. The method, then: as §1, §2
In general terms: ADP-Glo first removes unused ATP, then detects ADP through luciferase.

Assay [3] concerns the target T3, human IP6K2 (Homo sapiens, UniProt Q9UHH9).
T3 construct: human IP6K2 (1-426) gene; GST; made in house; host or cells: Sf-9 insect cells
T3 sequence (Q9UHH9 1-426): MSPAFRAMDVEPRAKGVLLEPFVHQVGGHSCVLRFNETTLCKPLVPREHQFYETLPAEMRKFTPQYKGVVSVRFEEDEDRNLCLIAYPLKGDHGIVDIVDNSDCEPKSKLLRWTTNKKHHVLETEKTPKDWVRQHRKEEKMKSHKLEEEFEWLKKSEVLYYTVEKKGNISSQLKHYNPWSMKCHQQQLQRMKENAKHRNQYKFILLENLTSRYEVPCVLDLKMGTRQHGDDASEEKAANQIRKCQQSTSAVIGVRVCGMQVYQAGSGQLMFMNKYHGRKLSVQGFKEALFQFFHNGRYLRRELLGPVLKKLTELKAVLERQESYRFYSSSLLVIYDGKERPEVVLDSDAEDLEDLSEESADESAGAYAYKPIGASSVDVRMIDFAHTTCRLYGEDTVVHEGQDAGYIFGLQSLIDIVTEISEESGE
Nature of the assay: IP6K enzyme inhibitory assay (ADP-Glo Kinase Assay), human IP6K2. Particulars: compound concentration 0.1 μM; read-out: ADP-Glo method inhibitory rate (%) human IP6K2. As to the method:
as §1, §2

The structures appear in SMILES notation.

T1 sequence (Q92551 whole entry): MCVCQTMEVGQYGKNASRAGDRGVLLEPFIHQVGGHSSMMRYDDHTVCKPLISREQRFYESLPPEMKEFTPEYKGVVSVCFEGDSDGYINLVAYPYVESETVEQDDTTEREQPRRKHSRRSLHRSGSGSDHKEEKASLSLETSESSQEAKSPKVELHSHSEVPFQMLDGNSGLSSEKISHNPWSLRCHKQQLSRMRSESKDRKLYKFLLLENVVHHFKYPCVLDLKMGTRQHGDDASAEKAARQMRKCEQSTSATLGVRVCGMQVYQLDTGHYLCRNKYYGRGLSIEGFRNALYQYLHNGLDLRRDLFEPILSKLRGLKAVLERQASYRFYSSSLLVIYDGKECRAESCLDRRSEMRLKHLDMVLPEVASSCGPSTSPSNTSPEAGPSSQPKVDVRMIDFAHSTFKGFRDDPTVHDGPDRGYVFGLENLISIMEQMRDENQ

`O=C(O)c1ccc2c(c1)[C@]1(CC[C@@H](Oc3ccc(Cl)cc3Cl)CC1)C(=O)N2` [Example 1, (1r,4r)-4-(2,4-dichlorophenoxy)-2′-oxo-1′,2′-dihydrospiro[cyclohexane-1,3′-indole]-5′-carboxylic acid]: the inhibition at 0.1 µM came out at 100% in assay [1], 99% in assay [2] and 100% in assay [3].
Take `O=C(O)c1ccc2c(c1)[C@]1(CC[C@@H](Oc3ccc(F)cc3)CC1)C(=O)N2` [Example 2]: the figures for the inhibition at 0.1 µM in assay [1], in assay [2] and in assay [3] were 101%, 100% and 94%, respectively.
For `O=C(O)c1ccc2c(c1)[C@]1(CC[C@@H](Oc3c(Cl)cc(Cl)cc3Cl)CC1)C(=O)N2` [Example 3, (1r,4r)-2′-oxo-4-(2,4,6-trichlorophenoxy)-1′,2′-dihydrospiro[cyclohexane-1,3′-indole]-5′-carboxylic acid], the inhibition at 0.1 µM in assay [1] turned out to be 101%; in assay [2], 85%; in assay [3], 101%.
On to `O=C(O)c1ccc2c(c1)[C@]1(CC[C@@H](Oc3ncc(F)cc3F)CC1)C(=O)N2` [Example 4, (1r,4r)-4-((3,5-difluoropyridin-2-yl)oxy)-2′-oxo-1′,2′-dihydrospiro[cyclohexane-1,3′-indole]-5′-carboxylic acid], for which the inhibition at 0.1 µM turned out to be 66% in assay [1], 99% in assay [2] and 79% in assay [3].
As to `O=C(O)c1ccc2c(c1)[C@]1(CC[C@H](Oc3cc(F)cnc3F)CC1)C(=O)N2` [Example 5, (1s,4s)-4-((2,5-difluoropyridin-3-yl)oxy)-2′-oxo-1′,2′-dihydrospiro[cyclohexane-1,3′-indole]-5′-carboxylic acid], the figures for the inhibition at 0.1 µM in assay [1], in assay [2] and in assay [3] were 86%, 94% and 89%, respectively.
As to `O=C(O)c1ccc2c(c1)[C@]1(CC[C@@H](Oc3ccc(C(F)(F)F)nc3)CC1)C(=O)N2` [Example 6, (1r,4r)-2′-oxo-4-((6-(trifluoromethyl)pyridin-3-yl)oxy)-1′,2′-dihydrospiro[cyclohexane-1,3′-indole]-5′-carboxylic acid], the inhibition at 0.1 µM in assay [1] worked out at 96%; in assay [2], 97%; in assay [3], 93%.
As to `N#Cc1cc(Cl)ccc1O[C@H]1CC[C@@]2(CC1)C(=O)Nc1ccc(C(=O)O)cc12` [Example 7, (1r,4r)-4-(4-chloro-2-cyanophenoxy)-2′-oxo-1′,2′-dihydrospiro[cyclohexane-1,3′-indole]-5′-carboxylic acid], the inhibition at 0.1 µM is 100% in assay [1], 86% in assay [2] and 101% in assay [3].
The matching figures for `NC(=O)c1cc(Cl)ccc1O[C@H]1CC[C@@]2(CC1)C(=O)Nc1ccc(C(=O)O)cc12` [Example 8, (1r,4r)-4-(2-carbamoyl-4-chlorophenoxy)-2′-oxo-1′,2′-dihydrospiro[cyclohexane-1,3′-indole]-5′-carboxylic acid]: 100%, 95% and 97%.
The matching figures for `O=C(O)c1ccc2c(c1)[C@]1(CC[C@@H](Oc3ccc(C(F)(F)F)cc3)CC1)C(=O)N2` [Example 10, (1r,4r)-2-oxo-4-(4-(trifluoromethyl)phenoxy)-1′,2′-dihydrospiro[cyclohexane-1,3′-indole]-5′-carboxylic acid]: 98%, 102% and 100%.
For `O=C(O)c1ccc2c(c1)[C@]1(CC[C@@H](Oc3ccc(Cl)cn3)CC1)C(=O)N2` [Example 11, (1r,4r)-4-((5-chloropyridin-2-yl)oxy)-2′-oxo-1′,2′-dihydrospiro[cyclohexane-1,3′-indole]-5′-carboxylic acid] the same measures were 100%, 102% and 97%.
